Source: patent US20200009085A1, “Methods For Treating Ovarian Cancer” (RADIUS HEALTH, INC., priority 2016, published 2020)
“Also recorded” adds a separate entry of the source. Where a name gives a salt, the structure may show the parent alone.

Legend:
[1] = test system: OV-10-0050 ovarian cancer tumor; assay: In vivo xenograft PDX model (OV-10-0050 ovarian patient derived xenograft)
Experimental: RAD1901 used in the examples below was (6R)-6-(2-(N-(4-(2-(ethylamino)ethyl)benzyl)-N-ethylamino)-4-methoxyphenyl)-5,6,7,8-tetrahydronaphthalen-2-ol dihydrochloride, manufactured by IRIX Pharmaceuticals, Inc. (Florence, S.C.). RAD1901 was stored as a dry powder, formulated for use as a homogenous suspension in 0.5% (w/v) methylcellulose in deionized water, and for animal models was administered p.o.
All mice were housed in pathogen-free housing in individually ventilated cages with sterilized and dust-free bedding cobs, access to sterilized food and water ad libitum, under a light dark cycle (12-14 hour circadian cycle of artificial light) and controlled room temperature and humidity.
The PDX shown in FIG. 1 was the OV-10-0050 ovarian cancer tumor, derived from an ovarian adenocarcinoma from a person. The tumor was grade 3 and positive for cytokeratin indicating an ovarian epithelial type. The tumor also stained positive for ER and an ER target gene (progesterone receptor). The OV-10-0050 PDX model was established from viable human tumor tissue that had been serially passaged in animals (female Balb/c nude mice) a limited number of times to maintain tumor heterogeneity. […]
Tumor sizes were measured twice per week in two dimensions using a caliper, and the volume was expressed in mm^3 using the formula: V=0.5 a×b^2 where a and b were the long and short diameters of the tumor, respectively. […]
TGI was calculated for each group using the formula: TGI (%)=[1−(Ti−T0)/(Vi−V0)]×100; Ti is the average tumor volume of a treatment group on a given day, T0 is the average tumor volume of the treatment group on the day of grouping, Vi is the average tumor volume of the vehicle control group on a given day with Ti, and V0 is the average tumor volume of the vehicle group on the day of grouping. […]
A one-way ANOVA was performed to compare tumor volume among RAD1901-treted groups compared to the vehicle-treated group on day 32 of treatment. All data were analyzed using Graphpad Prism. p<0.05 was considered to be statistically significant.

[2] = test system: breast cancer xenograft models; conditions: regardless of ESR1 mutation status and prior endocrine therapy; cited from earlier work
ERα = biological target: T1, ERα (Homo sapiens, UniProt P03372); conditions: ERα versus estrogen receptor beta (ERβ); cited from earlier work
T1 sequence (P03372 1-595): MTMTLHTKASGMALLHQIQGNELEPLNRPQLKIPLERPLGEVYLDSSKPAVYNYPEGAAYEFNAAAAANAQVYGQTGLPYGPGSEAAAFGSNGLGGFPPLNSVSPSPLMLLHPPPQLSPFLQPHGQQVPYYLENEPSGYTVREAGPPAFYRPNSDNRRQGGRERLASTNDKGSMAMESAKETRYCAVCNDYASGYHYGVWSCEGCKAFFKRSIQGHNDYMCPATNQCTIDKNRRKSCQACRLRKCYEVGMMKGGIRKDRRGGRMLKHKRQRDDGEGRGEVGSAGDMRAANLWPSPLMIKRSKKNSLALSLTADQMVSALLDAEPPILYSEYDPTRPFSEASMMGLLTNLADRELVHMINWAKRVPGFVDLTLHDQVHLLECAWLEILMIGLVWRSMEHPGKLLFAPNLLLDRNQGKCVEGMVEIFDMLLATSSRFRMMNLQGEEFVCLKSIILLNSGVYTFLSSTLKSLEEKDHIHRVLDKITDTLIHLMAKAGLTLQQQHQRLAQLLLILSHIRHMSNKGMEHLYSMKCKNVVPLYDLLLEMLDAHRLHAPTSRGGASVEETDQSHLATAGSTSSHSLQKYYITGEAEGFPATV

CCNCCc1ccc(CN(CC)c2cc(OC)ccc2[C@@H]2CCc3cc(O)ccc3C2)cc1 [RAD1901, (6R)-6-(2-(N-(4-(2-(ethylamino)ethyl)benzyl)-N-ethylamino)-4-methoxyphenyl)-5,6,7,8-tetrahydronaphthalen-2-ol dihydrochloride]
tolerability (reason the group was taken down) ([1]; 60 mg/kg p.o. q.d., Day 32, tumor-bearing Balb/c nude mice): weakness and heavy body weight loss | tumor regression ([1]; OV-10-0050 PDX, 30 mg/kg and 60 mg/kg p.o. daily, individual tumor sizes on Day 32, FIG. 2, dihydrochloride): drive tumor regression; also recorded: tumor regressions in some animals | tumor growth inhibition (TGI) ([1]; OV-10-0050 PDX, RAD1901 30 or 60 mg/kg p.o. q.d., day 32, approximately equal activity at both dose groups, FIG. 1): about 80% | tumor growth inhibition and/or regression [2]: inhibit tumor growth and/or drive tumor regression | binding preference ERα versus ERβ (ERα): preferentially bind ERα
